Patent US4716153A, “Stable oral preparation of macrolide antibiotics and method for stabilizing the same” (priority 1982, dated 1987)

Assay: Stability in Japan Pharmacopoeia 1st solution (pH 1.2) at 37° C., with or without stabilizer (TLC densitometry, 232 nm)
Assay type: physicochemical
Description: The stabilizers showing pH 3-10 used in the invention may be substances having a buffering or antacid action and showing pH 3-10, preferably 5.5-6.5. These are, for example, neutral amino acids or their basic salts, basic salts of acidic amino acids, basic amino acids,basic salts of organic carboxylic acids,basic salts of polybasic organic carboxylic acids, basic salts of uronic acid or inorganic salt antacids. The neutral amino acids or basic salts thereof include glycine, alanine, aminobutyric acid, proline, leucine, isoleucine, methionine, threonine, serine, valine, or their aluminium salts, for example aluminium glycinate. Among these, glycine, alanine and aluminium glycinate, both of which show pH 5.5-6.5, are preferable. The basic salts of acidic amino acid include monobasic salts such as a monosodium, monopotassium or magnesium salt of glutaminic or aspartic acid. Among these monobasic salts, monosodium glutamate or monosodium aspartate is preferable. The basic amino acids include arginine, glutamine, asparagine, citrulin, tryptophane and histidine. Especially, histidine is preferable. The basic salts of monobasic organic carboxylic acid include basic salts such as sodium, potassium, magnesium or aluminium salts of saturated monobasic organic carboxylic acids such as acetic acid and propionic acid, of unsaturated monobasic organic acids such as acrylic acid, crotonic acid and vinylacetic acid, and of other monobasic organic acids such as lactic acid, pyruvic acid, glyceric acid and acetoacetic acid. The basic salts of polybasic organic carboxylic acid include mono-, di- or tri-sodium, potassium, magnesium, calcium or aluminium salts of saturated polybasic organic carboxylic acids such as oxalic acid, malonic acid, succinic acid, glutaric acid, adipic acid and pimelic acid, of unsaturated polybasic organic carboxylic acids such as maleic acid and fumaric acid, and of other polybasic organic carboxylic acids such as meso-oxalic acid, malic acid, oxalacetic acid and citric acid. Among these, trisodium citrate is preferable. The basic salts of uric acids include sodium salts of glucuronic acid, galacturonic acid or their polymers such as alginic acid or peptic acid and dihydroxyaluminium aminoacetate sodium alginate. The inorganic salt antacids include calcium hydrogenphosphate, disodium hydrogenphosphate, dipotassium hydrogenphosphate, magnesium hydrogenphosphate, calcium carbonate, sodium carbonate, potassium carbonate, sodium hydrogen carbonate, aluminium carbonate, magnesium carbonate, potassium metasilicate, magnesium aluminate metasilicate, sodium metasilicate, synthetic aluminium silicate, magnesium silicate, aluminium silicate, magnesium aluminate silicate, magnesium-bismuth aluminate silicate, magnesium oxide, alumina-magnesium hydroxide, magnesium peroxide, magnesium hydroxide, aluminium hydroxide, synthetic hydrotarphite, aluminium phosphate and others. Especially, calcium phosphate and magnesium phosphate are preferable. Each of these stabilizers may be used alone or in the form of a mixture. […] A method for stabilization of 16-membered ring macrolide antibiotics of the present invention will be described in detail. The afore-mentioned various 16-membered ring macrolide antibiotics, for example 9-hydroxy 16-membered ring macrolides such as midecamycin, 3"-propionylleucomycin A5 and josamycin and 9-acyloxy 16-membered ring macrolides such as 9,3"-diacetylmidecamycin and 9-propionyljosamycin show extremely poor residual rates when added to an acidic solution of the Japanese Pharmacopoeia lst liquid (pH 1.2) and allowed to stand. That is, the 9hydroxy 16-membered ring maclorides decompose in a short time to by-produce their iso, demycarosyl and/or isodemycarosyl forms. The 9-acyloxy 16-membered ring macrolides decompose, too, to by-produce their 9-deacyl, 9-deacyl-iso, demycarosyl, 9-deacyl-demycarosyl or 9-deacyl-iso-demycarosyl forms. […]

In the case of `CCCC(=O)OC1C(C)OC(OC2C(C)OC(OC3C(CC=O)CC(C)C(O)/C=C/C=C/CC(C)OC(=O)CC(O)C3OC)C(O)C2N(C)C)CC1(C)OC(=O)CC` (stereo not drawn) [TMS-19-Q, 3"-propionyl leucomycin A5], the “improvement of stability compared with control, 30 minutes” value (150 mg of glycine, value at 30 minutes) is reported as 30%, the “stability in 1st solution (in words)” value (1st solution pH 1.2, no stabilizer) is reported as “extremely unstable” and the “stability with tri-sodium citrate (in words)” value (150-300 mg of tri-sodium citrate, 1st solution) is reported as “very much enhanced”. For the same compound, the “stability with calcium phosphate (in words)” value (150-400 mg of calcium phosphate, 1st solution) was “very much enhanced”, the “stability with glycine (in words)” value (150-900 mg of glycine, 1st solution) was “stabilized well” and the “stability with L-aspartic acid monosodium salt (in words)” value (200-500 mg of Asp.Na, 1st solution) was “very much enhanced”. The “stability with monosodium glutamate (in words)” value (200-500 mg of Glu.Na, 1st solution) was “very much enhanced”, the degraded at 0.5 h (jp 1st solution, 1st solution pH 1.2, 37° C., 30 minutes, no stabilizer, read-out: decomposites (balance), 30 minutes) was 39.5% and the remaining at 0.5 h (jp 1st solution, 1st solution pH 1.2, 37° C., 30 minutes, no stabilizer, read-out: residual amount after contact with 1st solution, 30 minutes) was 60.5%. The degraded at 1 h (jp 1st solution, 1st solution pH 1.2, 37° C., 60 minutes, no stabilizer, read-out: decomposites (balance), 60 minutes) was 41.4%, the remaining at 1 h (jp 1st solution, 1st solution pH 1.2, 37° C., 60 minutes, no stabilizer, read-out: residual amount after contact with 1st solution, 60 minutes) was 58.6% and the “stability with a larger amount of glycine (in words)” value (larger amount of glycine (up to 900 mg)) was “hardly decomposed”.
